According to US20140066365A1, “USE OF CALIXARENES ASSOCIATED WITH AN ANTIBIOTIC IN THE TREATMENT OF BACTERIAL INFECTIONS” (priority 2011, published 2014):
Values after ≈ are worked out from the molar mass of the structure shown. Read-outs that look alike come from different tables or passages of the source.

How the values were obtained:
[1] = system: ESBL-producing strain of Escherichia coli, having an associated resistance to the aminoglycosides (EcR3); experiment: MIC of the compounds used alone, microdilution in a liquid medium (CLSI); assay type: cell-based; details: Escherichia coli, antibiotic alone (second value of cell), read-out: Initial MICs
Excerpt: (§1) The MICs of the antibiotics were previously defined for each strain, by the method of microdilution in a liquid medium (CLSI (Clinical and Laboratory Standards Institute), 2003).

[2] = system: Escherichia coli strain ATCC 25922 (wild type); experiment: as above; assay type: cell-based; details: Escherichia coli, ATCC25922; antibiotic alone (second value of cell); E. coli ATCC 25922; read-out: Initial MICs
Excerpt: as §1

[3] = system: Pseudomonas aeruginosa strain ATCC 27853 (wild type); experiment: as above; assay type: cell-based; details: antibiotic alone (second value of cell), P. aeruginosa ATCC 27853
Excerpt: as §1

[4] = system: Pseudomonas aeruginosa strain PaR3; experiment: as above; assay type: cell-based; details: antibiotic alone (second value of cell)
Excerpt: as §1

[5] = system: cephalosporinase-hyperproducing strain of Escherichia coli (EcR2); experiment: as above; assay type: cell-based; details: Escherichia coli, antibiotic alone (second value of cell), read-out: Initial MICs
Excerpt: as §1

[6] = system: mucoid strain of Pseudomonas aeruginosa PaR5; experiment: as above; assay type: cell-based; details: antibiotic alone (second value of cell)
Excerpt: as §1

[7] = system: penicillinase-producing strain of Escherichia coli without associated resistance (EcR1); experiment: as above; assay type: cell-based; details: Escherichia coli, antibiotic alone (second value of cell), read-out: Initial MICs
Excerpt: as §1

[8] = system: Pseudomonas aeruginosa strain PaR2; experiment: microbe, parasite or virus in culture; assay type: cell-based; details: antibiotic alone (second value of cell)
Excerpt: as §1

[9] = system: EcR1: Penicillinase-Producing Escherichia coli without Associated Resistance; experiment: Antibiogram by the disk diffusion technique; assay type: cell-based; details: for MIC mg/L (diameter in mm): EcR1, cells that print a diameter, Table A2; for Diameter: EcR1, disk diffusion
Experimental: 5.1 EcR1: Penicillinase-Producing Escherichia coli without Associated Resistance The bacterial and antibiogramidentification is carried out by the VITEK 2 system (bioMérieux) and by the disk diffusion technique.

[10] = system: EcR3: ESBL-Producing Escherichia coli; experiment: Antibiogram by the disk diffusion technique; assay type: cell-based; details: for Diameter: Table C1; for diameter in mm: Table C2
Experimental: The bacterial and antibiogramidentification is carried out by the VITEK 2 system (bioMerieux) and by the disk diffusion technique

[11] = system: SaR1: Meticillin-Resistant Staphylococcus aureus without Associated Resistance; experiment: Antibiogram, MIC by the VITEK 2 system; assay type: cell-based; details: SaR1
Experimental: (§2) The bacterial and antibiogramidentification is carried out by the VITEK 2 system (bioMérieux)

[12] = system: PaR5: Pseudomonas aeruginosa; experiment: Antibiogram by the disk diffusion technique; assay type: cell-based; details: for diameter in mm: disk diffusion inhibition diameter, strain PaR5
Experimental: (§3) The bacterial and antibiogramidentification is carried out by the VITEK 2 system (bioMérieux) and by the disk diffusion technique

[13] = system: SaR3: Meticillin-Resistant Staphylococcus aureus; experiment: Antibiogram by the disk diffusion technique; assay type: cell-based
Experimental: as §3

[14] = system: SaR4: Meticillin-Resistant Staphylococcus aureus; experiment: Antibiogram, MIC by the VITEK 2 system; assay type: cell-based; details: Staphylococcus aureus, SaR4, read-out: MIC
Experimental: as §3

[15] = system: PaR2: Pseudomonas aeruginosa; assay type: cell-based; details: for Diameter: Table G1; for diameter in mm: Table G2
Experimental: as §3

[16] = system: SaR1: Meticillin-Resistant Staphylococcus aureus without Associated Resistance; experiment: Antibiogram, inhibition diameter (Table D1); assay type: cell-based
Experimental: as §2

[17] = system: Staphylococcus aureus strain ATCC 29213 (wild type); experiment: MIC of the compounds used alone, microdilution in a liquid medium (CLSI); assay type: cell-based; details: Staphylococcus aureus, ATCC29213; antibiotic alone (second value of cell); S. aureus ATCC 29213; read-out: Initial MICs
Excerpt: as §1

[18] = as above; assay type: cell-based, Staphylococcus aureus; details: Staphylococcus aureus, MRSA; antibiotic alone (second value of cell); SaR4; read-out: MIC
Excerpt: as §1

[19] = system: MRSA strain having a resistance to the aminoglycosides and fluoroquinolones (SaR3); experiment: as above; assay type: cell-based, Staphylococcus aureus; details: Staphylococcus aureus, MRSA; antibiotic alone (second value of cell); SaR3; read-out: MIC
Excerpt: as §1

[20] = system: MRSA strain without associated resistance (SaR1); experiment: as above; assay type: cell-based, Staphylococcus aureus; details: Staphylococcus aureus, MRSA; antibiotic alone (second value of cell); SaR1; read-out: MIC
Excerpt: as §1

[21] = system: Escherichia coli, Staphylococcus aureus and Pseudomonas aeruginosa strains; experiment: Chessboard technique, summary statements over all strains and combinations tested; assay type: cell-based; details: strain not stated
Excerpt: 1.3. Procedure: Chessboard Technique
The same procedure is followed for the Cx1. […] Thus 64 ATB/Cx1 combinations are obtained.
The FIC (Fractional Inhibitory Concentration Index) value is defined by the following formula: […]
When FIC≦0.5, there is a synergistic effect between antibiotic A and antibiotic B.
When 0.5<FIC≦1, there is an additive effect between antibiotic A and antibiotic B.
When 1<FIC≦4, there is an indifferent effect between antibiotic A and antibiotic B.
When FIC>4, there is an antagonistic effect between antibiotic A and antibiotic B.
For each strain and each antibiotic/Cx1 combination, the experiments were repeated a minimum of 3 times.

[22] = system: PaR3: Pseudomonas aeruginosa; experiment: Antibiogram, MIC by the VITEK 2 system; assay type: cell-based
Experimental: as §2

[23] = Pseudomonas aeruginosa, read-out: MIC

CO[C@H]1/C=C/O[C@@]2(C)Oc3c(C)c(O)c4c(O)c(c(/C=N/N5CCN(C)CC5)c(O)c4c3C2=O)NC(=O)/C(C)=C\C=C\[C@H](C)[C@H](O)[C@@H](C)[C@@H](O)[C@@H](C)[C@H](OC(C)=O)[C@@H]1C [Rifampicin]
MIC [1]: 4 µg/mL | MIC [2]: 4 µg/mL | MIC ([3]; Pseudomonas aeruginosa, ATCC27853, read-out: MIC): 64 µg/mL | MIC [4, 23]: 32 µg/mL | MIC [5]: 2 µg/mL | MIC [6, 23]: 16 µg/mL | MIC [7]: 4 µg/mL | MIC [8, 23]: 64 µg/mL (≈ 77.8 µM) | MIC mg/L (diameter in mm) [9]: 16 mm | Diameter ([9]; Table A1): 16 mm | Diameter [10]: 15 mm | diameter in mm [10]: 15 mm | MIC mg/L ([11]; Table D2): ≦0.5 mg/L | MIC ([11]; Staphylococcus aureus, Table D1, read-out: MIC): ≤ 0.5 µg/mL | Diameter ([12]; PaR5, Table I1): 13 mm | diameter in mm [12]: 13 mm | Diameter ([13]; Table E1): 31 mm | diameter in mm ([13]; Table E2): 31 mm | MIC ([14]; Table F1): ≤ 1 µg/mL | MIC ([14]; Table F2, MIC): ≤ 1 µg/mL | Diameter [15]: 25 mm | diameter in mm [15]: 25 mm | Diameter [16]: 30 mm

[H]/N=C(/N)N[C@H]1[C@H](O)[C@@H](O)[C@H](O[C@@H]2O[C@@H](C)[C@](O)(C=O)[C@H]2O[C@@H]2O[C@@H](CO)[C@H](O)[C@@H](O)[C@@H]2NC)[C@@H](N/C(N)=N\[H])[C@@H]1O [Streptomycin]
MIC [17]: 4 µg/mL | MIC [18]: 4 µg/mL | MIC [19]: 4 µg/mL | MIC [20]: 4 µg/mL | interaction between the antibiotic and Cx1 [21]: synergism

Colimycin
MIC [3]: 4 µg/mL | MIC [4]: 8 µg/mL | MIC [6]: 16 µg/mL | MIC [8]: 8 µg/mL | MIC mg/L (diameter in mm) [9]: 15 mm | CA-SFM Interpretation ([9]; EcR1, diameter against CA-SFM 2011 limits): Susceptible | EUCAST Interpretation ([9]; EcR1, diameter against EUCAST 2011 limits): Resistant | Diameter ([9]; Table A1): 15 mm | Results ([9]; EcR1, interpretation of the diameter against Dmin Dmax, Table A1): Susceptible | CA-SFM Interpretation ([10]; Cd CA-SFM 2011): Susceptible | Diameter [10]: 16 mm | Results ([10]; Table C1, against Dmin Dmax): Susceptible | diameter in mm [10]: 16 mm | CA-SFM Interpretation ([22]; Cc CA-SFM 2011): Susceptible | CLSI Interpretation ([22]; Cc CLSI 2011): Susceptible | EUCAST Interpretation ([22]; Cc EUCAST 2011): Susceptible | MIC ([22]; Table H1): ≦0.5 | Results ([22]; Table H1): Susceptible | MIC mg/L ([22]; Table H2): ≦0.5 mg/L | Diameter ([12]; PaR5, Table I1): 23 mm | Results ([12]; PaR5, Table I1, against Dmin-Dmax): Susceptible | diameter in mm [12]: 23 mm | CA-SFM Interpretation ([12]; disk diffusion, PaR5, versus critical diameter CA-SFM 2011): Susceptible | CLSI Interpretation ([12]; disk diffusion, PaR5, versus critical diameter CLSI 2011): Susceptible | CA-SFM Interpretation ([15]; Cd CA-SFM 2011): Susceptible | CLSI Interpretation ([15]; Cd CLSI 2011): Susceptible | Diameter [15]: 20 mm | Results ([15]; Table G1, against Dmin-Dmax): Susceptible | diameter in mm [15]: 20 mm
